Data: publication PMC4085075, “Characterization of Estrogen and Androgen Activity of Food Contact Materials by Different In Vitro Bioassays (YES, YAS, ERα and AR CALUX) and Chromatographic Analysis (GC-MS, HPLC-MS)” (PLoS ONE, 2014)
pEC50: −log10 of the molar value. Read-outs that look alike come from different tables or passages of the source.

What was measured:
rainbow trout = system: rainbow trout; design: method as in PMID 18261797; conditions: cited from earlier work
CHO-K1 cells = system: CHO-K1 cells; design: method as in PMID 18261797; conditions: cited from earlier work
[1] = target: T1, human estrogen receptor (hERα) (Homo sapiens, UniProt P03372); assay: Yeast estrogen screen (YES); assay type: cell-based
T1 construct: expressed in transfected cells; host or cells: recombinant yeast strain (provided by Wagner and Oehlmann, Frankfurt; by permission of Routledge and Sumpter)
T1 sequence (P03372 1-595): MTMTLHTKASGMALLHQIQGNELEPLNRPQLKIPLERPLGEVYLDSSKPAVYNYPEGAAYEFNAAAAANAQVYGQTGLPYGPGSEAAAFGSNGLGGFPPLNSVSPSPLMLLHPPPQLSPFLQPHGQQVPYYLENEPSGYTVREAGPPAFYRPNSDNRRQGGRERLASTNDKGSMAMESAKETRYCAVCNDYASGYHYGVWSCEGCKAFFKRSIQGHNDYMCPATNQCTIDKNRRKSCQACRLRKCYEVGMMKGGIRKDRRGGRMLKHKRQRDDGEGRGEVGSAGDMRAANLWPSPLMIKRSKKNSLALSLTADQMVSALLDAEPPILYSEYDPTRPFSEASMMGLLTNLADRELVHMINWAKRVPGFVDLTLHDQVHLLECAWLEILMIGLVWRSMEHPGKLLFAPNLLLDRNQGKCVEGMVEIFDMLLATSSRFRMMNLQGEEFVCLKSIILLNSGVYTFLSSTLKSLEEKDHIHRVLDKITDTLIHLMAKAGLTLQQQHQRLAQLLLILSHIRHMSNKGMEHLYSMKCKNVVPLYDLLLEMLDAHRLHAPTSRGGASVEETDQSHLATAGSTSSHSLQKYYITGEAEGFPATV
Protocol: (§1) Briefly, different resin types of food packaging were migrated with food simulants for 10 days at 60°C. […] From every sample two independent migrates were prepared, subsequently concentrated by solid phase extraction and tested in the bioassays. […] For each migration a solvent blank of each food simulant was migrated in a glass bottle with a polytetrafluorethylene-coated cap. Prior to solid phase extraction, 1 ml and 20 ml of each migrate were set aside for HPLC and GC analysis.
(§2) After 10 days of migration, solid phase extraction by Waters Oasis HLB columns (5 cc/200 mg) was used to extract hormone active components from the food simulants. As described in detail by Kirchnawy et al. sample migrates diluted to 10% ethanol and adjusted to pH 3 were drawn through the columns and eluted into […] DMSO. Elutes were evaporated under a nitrogen stream to a final volume of 150–200 µl and stored at 4°C prior to analysis by YES, YAS and CALUX bioassays. Extraction recoveries and reproducibility of the solid phase extraction were previously determined by Kirchnawy et al..
The yeast strain contains the stably integrated human estrogen receptor (hERα) gene and an expression plasmid containing the reporter gene lacZ under the control of estrogen responsive elements (ERE). The activation of the hERα by the binding of an estrogen active substance leads to the expression of β-galactosidase, which converts the substrate chlorophenol red-β-D-galactopyranoside (CPRG) into chlorophenol red.
The analysis of food contact materials was conducted as previously described by Kirchnawy et al.. Briefly, yeast cells were incubated with fresh media supplemented with 1% of the respective DMSO sample extracts on a 96-well microtiter plate for 24 h. […] The regression was calculated by MS Excel, using the formula for a linear regression curve (y = kx + d).

[2] = target: T2, human estrogen receptor alpha (hERα) (Homo sapiens, UniProt P03372); assay: ERα CALUX reporter gene assay in U2-OS cells; assay type: cell-based; conditions: for pEC50: footnote a: inhibition of U2-OS cell growth at higher concentrations
T2 construct: host or cells: human U2-OS osteosarcoma cells
T2 sequence (P03372 1-595): T1 sequence (P03372 1-595)
Protocol: as §1, §2
The ERα CALUX is a human U2-OS cell line stably co-transfected with an expression construct for the human estrogen receptor alpha (hERα). Activation of the hERα by the binding of an estrogen active substance leads to the transcription of luciferase, which emits light when luciferin is added as a substrate.
Assay procedure was conducted as previously described by Sonneveld et al. with modifications. U2-OS cells were plated at a concentration of 10 000 cells/well with 100 µl phenol red-free Dulbecco's modified eagle medium (DMEM) (supplemented with dextran-coated charcoal-stripped FCS) in a 96-well microtiter plate. After 24 h incubation at 37°C in a humidified atmosphere with 5% CO2, DMEM medium was refreshed and cells were incubated for another 24 h with 0.5% of the respective DMSO sample extract. After examining cell growth under a microscope to ensure that sample extracts had no cytotoxic or growth inhibiting effects, 50 µl Steady Glo Luciferase-Mix (Promega) was added to each well and incubated for 15 min for cell lysis. This was followed by measuring the luciferase activity of each well using a multilabel reader (Victor^3, Perkin Elmer).

[3] = target: T3, human androgen receptor (hAR) (Homo sapiens, UniProt P10275); assay: AR CALUX reporter gene assay in U2-OS cells; assay type: cell-based; design: host or cells: human U2-OS osteosarcoma cells; conditions: footnote a: inhibition of U2-OS cell growth at higher concentrations
T3 sequence (P10275 1-920): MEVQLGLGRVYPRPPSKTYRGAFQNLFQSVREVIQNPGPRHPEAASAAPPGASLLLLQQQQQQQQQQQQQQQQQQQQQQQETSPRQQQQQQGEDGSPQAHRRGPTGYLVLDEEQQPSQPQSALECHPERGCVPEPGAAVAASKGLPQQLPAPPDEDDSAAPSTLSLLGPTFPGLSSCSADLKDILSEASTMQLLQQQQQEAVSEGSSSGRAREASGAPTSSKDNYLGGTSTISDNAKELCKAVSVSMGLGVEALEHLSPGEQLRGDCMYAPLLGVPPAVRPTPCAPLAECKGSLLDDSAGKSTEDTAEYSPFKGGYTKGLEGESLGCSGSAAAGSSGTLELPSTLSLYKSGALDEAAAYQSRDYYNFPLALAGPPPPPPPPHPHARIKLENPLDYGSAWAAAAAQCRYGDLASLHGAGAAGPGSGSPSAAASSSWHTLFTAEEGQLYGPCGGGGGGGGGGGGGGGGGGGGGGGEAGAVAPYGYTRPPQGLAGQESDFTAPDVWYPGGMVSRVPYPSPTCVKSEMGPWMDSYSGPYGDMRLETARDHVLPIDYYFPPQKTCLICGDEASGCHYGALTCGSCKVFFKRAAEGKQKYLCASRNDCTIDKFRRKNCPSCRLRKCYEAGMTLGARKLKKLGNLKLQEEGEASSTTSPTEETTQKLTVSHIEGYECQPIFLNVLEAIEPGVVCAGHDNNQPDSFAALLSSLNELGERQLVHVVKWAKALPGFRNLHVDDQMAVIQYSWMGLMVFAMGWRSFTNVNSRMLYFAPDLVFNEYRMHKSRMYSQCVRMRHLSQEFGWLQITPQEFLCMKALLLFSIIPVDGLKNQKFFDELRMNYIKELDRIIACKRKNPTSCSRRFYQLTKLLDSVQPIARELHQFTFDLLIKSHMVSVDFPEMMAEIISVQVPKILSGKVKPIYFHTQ
Protocol: as §1, §2

[4] = target: T3, human androgen receptor (hAR); assay: Yeast androgen screen (YAS); assay type: cell-based; conditions: footnote b: inhibition of yeast growth at higher concentrations
Protocol: as §1, §2

MCF7 = system: MCF7; design: method as in PMID 11485868; conditions: human cell-based MCF7 proliferation assay; cited from earlier work
[5] = system: kidney fibroblast cell 293T and human breast cancer cells ZR-75; design: method as in PMID 7556011; conditions: at a concentration of 100 µmol/l; cited from earlier work
[6] = design: method as in PMID 21050888; conditions: cited from earlier work
[7] = agonist mode, footnote b: inhibition of yeast growth at higher concentrations, read-out: YES Estrogen activity EC50
[8] = antagonist mode, spiked with 80 pmol/l 17β-estradiol, footnote b: inhibition of yeast growth at higher concentrations, read-out: YES Antiestrogen activity EC50
[9] = agonist mode, read-out: ER CALUX Estrogen activity EC50
[10] = antagonist mode, spiked with 8 pmol/l 17β-estradiol, read-out: ER CALUX Antiestrogen activity EC50

| pEC50 [1, 7] | pEC50 [1, 8] | pEC50 [2, 9] | pEC50 [2, 10] | SMILES | estrogen activity in the YES (in words) ([1]; agonist mode) | estrogen activity in the ERα CALUX (in words) ([2]; agonist mode) | further results |
| --- | --- | --- | --- | --- | --- | --- | --- |
| < 5.00 | < 5.00 | < 4.70 | < 4.70 | CC(C)(C)c1ccc(O)c(C(C)(C)C)c1 [2,4-di-tert-butylphenol] | – | – | androgen antagonist in rainbow trout (rainbow trout): androgen antagonist; androgen antagonist in CHO-K1 cells (CHO-K1 cells): androgen antagonist |
| 3.30 | < 3.00 | 4.40 | < 3.30 | c1ccc(CCCc2ccccc2)cc1 [1,3-diphenylpropane] | tested positive for estrogen activity | tested positive for estrogen activity | pEC50 ([3]; agonist mode, read-out: AR CALUX Androgen activity EC50): < 3.30; pEC50 ([3]; antagonist mode, spiked with 400 pmol/l DHT, read-out: AR CALUX Antiandrogen activity EC50): 4.52; pEC50 ([4]; agonist mode, read-out: YAS Androgen activity EC50): < 3.00; pEC50 ([4]; antagonist mode, spiked with 2.4 nmol/l DHT, read-out: YAS Antiandrogen activity EC50): 4.52 |
| – | – | – | – | c1ccc(C2CCC2c2ccccc2)cc1 (stereo not drawn) [1,2-diphenylcyclobutane] | – | – | times less active than 17β-estradiol (MCF7): 4*10^5 |
| – | – | – | – | Cc1cc(C(C)(C)C)c(O)c(C(C)(C)C)c1 [2,6-bis(1,1-dimethylethyl)-4-methylphenol] | – | – | estrogen activity in 293T and ZR-75 cells [5]: tested positive for estrogen |
| – | – | – | – | CC(C)(c1ccccc1)c1ccc(O)c(C(C)(C)c2ccccc2)c1 [2,4-di-cumylphenol] | showed estrogen activity | showed estrogen activity | pEC50 [1]: < 3.52; pEC50 ([2]; ER CALUX Antiestrogen activity EC50, antagonist mode, spiked with 8 pmol/l 17β-estradiol): < 4.70; pEC50 ([2]; ER CALUX Estrogen activity EC50, agonist mode): 5.30 |

| SMILES | pEC50 [1, 7] | pEC50 [1, 8] | pEC50 [2, 9] | pEC50 [2, 10] | estrogen activity in the YES (in words) ([1]; agonist mode) | estrogen activity in the ERα CALUX (in words) ([2]; agonist mode) | further results |
| --- | --- | --- | --- | --- | --- | --- | --- |
| CCCCC(CC)COC(=O)CCCCC(=O)OCC(CC)CCCC (stereo not drawn) [diethylhexyladipate (DEHA), diethylhexyladipate] | < 3.00 | < 3.00 | < 3.30 | < 3.30 | did not show any activity | did not show any activity | estrogen activity using the E-Screen [6]: tested positive for estrogen activity |
